Test results: ChEMBL document CHEMBL1149039, “A new scalarane sesterterpenoid from the marine sponge Cacospongia mollior” (J Nat Prod, 1994)
Converted amounts (≈) assume the structure as drawn.

Assay: Toxicity in Artemia salina
Assay type: organism-based
Conditions: in vivo, read-out: LD50 (the source's name)

**Q.** Which LC50 does the source give for CC(=O)O[C@H]1C[C@@H]2[C@@]3(C)CCCC(C)(C)[C@@H]3CC[C@@]2(C)[C@@H]2CC=C(C=O)[C@H](C=O)[C@@]12C [SCALARADIAL] here?
**A.** 0.18 µg/mL (≈ 0.42 µM)

**Q.** Which LC50 does the source give for CC1(C)CCC[C@]2(C)[C@H]3CC[C@@]4(C)[C@@H](CC=C(C=O)[C@@H]4C=O)[C@]3(C)CC[C@@H]12 [12-DEACETOXYSCALARADIAL] here?
**A.** 0.77 µg/mL (≈ 2.08 µM)
